Test results as given in patent US7572765B2, “Conformationally constrained parathyroid hormone (PTH) analogs” (The General Hospital Corporation, priority 2001, dated 2009).
“And” between values parts separate entries of the source, which are not always exact repeats. Identical values can stand only once. Like-named read-outs stand apart in the source and are kept apart here. Square brackets hold non-standard residues; d marks the D form. Peptide text beside a SMILES is read from it. hArg = N=C(N)NCCCC[C@H](N)C(=O)O; Aib = CC(C)(N)C(=O)O

Legend:
human P1R = molecular target: T1, human P1R (Homo sapiens, UniProt Q03431); experiment: cAMP stimulation in HKRK-B28 cells; format: cell-based; conditions: for cAMP EMax(obs.): basal 4.0 ± 0.1 pmole/well not subtracted
T1 construct: expressed in transfected cells; host or cells: HKRK-B28 (porcine kidney LLC-PK1, stably transfected)
T1 sequence (Q03431 27-593): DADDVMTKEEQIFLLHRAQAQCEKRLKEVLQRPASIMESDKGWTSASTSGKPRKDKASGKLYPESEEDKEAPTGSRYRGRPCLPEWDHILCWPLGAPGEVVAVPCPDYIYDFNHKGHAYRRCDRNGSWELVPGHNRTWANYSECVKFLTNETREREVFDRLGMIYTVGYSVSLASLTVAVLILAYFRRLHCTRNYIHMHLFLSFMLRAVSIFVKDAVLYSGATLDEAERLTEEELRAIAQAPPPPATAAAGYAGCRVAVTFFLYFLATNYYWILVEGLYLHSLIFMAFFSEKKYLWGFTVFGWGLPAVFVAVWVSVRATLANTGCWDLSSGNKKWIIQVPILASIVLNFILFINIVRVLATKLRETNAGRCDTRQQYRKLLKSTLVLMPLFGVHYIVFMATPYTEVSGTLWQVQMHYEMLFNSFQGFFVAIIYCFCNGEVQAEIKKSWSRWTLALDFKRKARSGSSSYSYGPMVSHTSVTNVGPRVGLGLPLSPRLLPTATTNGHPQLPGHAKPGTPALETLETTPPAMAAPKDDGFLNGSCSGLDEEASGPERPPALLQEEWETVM

[1] = molecular target: T2, PTH-1 receptor endogenously expressed in SaOS-2 cells (Homo sapiens, UniProt Q03431); experiment: cAMP stimulation in SaOS-2 cells; format: cell-based; conditions: for EMAX(obs.): basal 6.4 ± 0.8; for EC50: N.R. = no cAMP response detected
T2 construct: endogenously expressed relatively low levels of the PTH-1 receptor; endogenous in cells; host or cells: SaOS-2 (SaOS-2-B10) human osteosarcoma cells
T2 sequence (Q03431 27-593): T1 sequence (Q03431 27-593)
Protocol: (§1) Cell Culture. The cell line HKRK-B28 (Takasu, H., et al., J. Bone Miner. Res. 14:11-20 (1999)) was derived from the porcine kidney cell line, LLC-PK1 by stable transfection with plasmid DNA encoding the human P1R and expresses ˜280,000 receptors per cell. These cells, as well as COS-7 cells and SaOS-2-B10 cells, were cultured at […] in T-75 flasks ([…]) in Dulbecco's modified Eagle's medium (DMEM) supplemented with fetal bovine serum (10%), penicillin G (20 units/ml), streptomycin sulfate (20 μg/ml) and amphotericin B (0.05 μg/ml) in a humidified atmosphere containing 5% CO2. Stock solutions of EGTA/trypsin and antibiotics were from GIBCO; fetal bovine serum was from Hyclone Laboratories (Logan, Utah). COS-7 cells sub-cultured in 24-well plates were transfected with plasmid DNA (200 ng per well) encoding the wild-type human P1R or truncated human P1R deleted for residues (24-181) (Shimizu, M., et al., J. Biol. Chem. 275:21836-21843 (2000)) that was purified by cesium chloride/ethidium bromide density gradient centrifugation, and FuGENE 6 transfection reagent (Roche Indianapolis Ind.) according to the manufacturer's recommended procedure. All cells, in 24-well plates, were treated with fresh media and shifted to 33° C. for 12 to 24 h prior to assay.
cAMP Stimulation. Stimulation of cells with peptide analogs was performed in 24-well plates. Cells were rinsed with 0.5 mL of binding buffer (50 mM Tris-HCI, […], 5 mM KCl, 2 mM CaCl2, 5% heat-inactivated horse serum, 0.5% fetal bovine serum, adjusted to pH 7.5 with HCl) and treated with 200 μL of cAMP assay buffer (Delbecco's modified Eagle's medium containing 2 mM 3-isobutyl-1-methylxanthine, 1 mg/mL bovine serum albumin, 35 mM Hepes-NaOH, pH 7.4) and 100 μL of binding buffer containing varying amounts of peptide analog (final volume=300 μL). The medium was removed after incubation for 30 to 60 minutes at room temperature, and the cells were frozen on dry ice, lysed with 0.5 mL 50 mM HCl, and refrozen ([…]). The cAMP content of the diluted lysate was determined by radioimmunoassay. The EC50 response values were calculated using nonlinear regression (see below).
Data Calculation. Calculations were performed using Microsoft® Excel. Nonlinear regression analyses of binding and cAMP dose-response data were performed using the four-parameter equation: yp=Min+[(Max−Min)/(1+(IC50/x)^slope)]. The Excel Solver function was utilized for parameter optimization, as described previously (Carter, P. H., et al., Endocrinology 140: 4972-4981 (1999); Bowen, W. P., and Jerman, J. C., Trends in Pharmacol. Sci. 16: 413-417 (1995)). Differences between paired data sets were statistically evaluated using a one-tailed Student's t-test, assuming unequal variances for the two sets.
The number of PTH-1 receptors expressed on the surface of the PTH target cells in bone or kidney is uncertain, but it is likely to be considerably lower than that found in HKRK-B28 cells. Therefore, several of the Aib-mounted PTH analogs were evaluated using SaOS-2 cells.

[2] = molecular target: T3, wild-type human P1R (hP1R-WT) (Homo sapiens, UniProt Q03431); experiment: Competition binding in COS-7 cells expressing hP1R-WT
T3 construct: expressed in transfected cells; host or cells: COS-7 (transient, FuGENE 6)
T3 sequence (Q03431 27-593): T1 sequence (Q03431 27-593)
Protocol: as §1
Competition Binding. Binding reactions were performed with HKRK-B28 cells or in COS-7 cells in 24-well plates. The cells were rinsed with 0.5 mL of binding buffer, and then treated successively with 100 μL binding buffer, 100 μL of binding buffer containing various amounts of unlabeled competitor ligand, and 100 μL of binding buffer containing ca. 100,000 cpm of ^125I-[M]PTH(1-21) or ^125I-[Aib^1,3,M]PTH(1-21)} (ca. 26 fmol; final volume=300 μL). Incubations were 4 to 6 h at 4° C., at which time near equilibrium conditions were attained. Cells were then placed on ice, the binding medium was removed, and the monolayer was rinsed three times with 0.5 mL of cold binding buffer. The cells were subsequently lysed with 0.5 mL […] and counted for radioactivity. For each tracer and in each experiment, the non-specific binding was determined as the radioactivity that bound in the presence of the same unlabeled peptide at a concentration of 1 μM, and was ˜1% of total radioactivity added for each tracer. The maximum specific binding (B0) was the total radioactivity bound in the absence of competing ligand, corrected for nonspecific binding, and for each tracer, ranged from 8% to 20% of the total radioactivity added. Nonlinear regression was used to calculate binding IC50 values (see below). Scatchard transformations of homologous competition binding data derived from studies with 26 fmol of ^125I-[Aib^1,3,M]PTH(1-21) were employed for estimations of apparent equilibrium dissociation constant (kDapps) and total number of ligand binding sites (Bmax), assuming a single class of binding sites and equal affinities of the iodinated and non iodinated ligand.
Data Calculation. Calculations were performed using Microsoft® Excel. Nonlinear regression analyses of binding and cAMP dose-response data were performed using the four-parameter equation: yp=Min+[(Max−Min)/(1+(IC50/x)^slope)]. […] Differences between paired data sets were statistically evaluated using a one-tailed Student's t-test, assuming unequal variances for the two sets. […]

[3] = COS-7 cells, hP1R-WT, tracer 125I-[Aib^1,3,M]PTH(1-21), N.B. = no inhibition of tracer binding

For `CCCC[C@H](NC(=O)[C@H](CCCNC(=N)N)NC(=O)[C@H](CCC(=O)O)NC(=O)[C@@H](NC(=O)[C@H](CO)NC(=O)[C@H](C)NC(=O)[C@H](CC(C)C)NC(=O)[C@H](Cc1c[nH]cn1)NC(=O)[C@H](CCCCN)NC(=O)CNC(=O)[C@H](CC(C)C)NC(=O)[C@H](CC(N)=O)NC(=O)[C@H](Cc1c[nH]cn1)NC(=O)[C@H](CCCC)NC(=O)[C@H](CC(C)C)NC(=O)[C@H](CCC(N)=O)NC(=O)[C@@H](NC(=O)[C@H](CCC(=O)O)NC(=O)[C@H](CO)NC(=O)[C@@H](NC(=O)[C@H](C)N)C(C)C)[C@@H](C)CC)C(C)C)C(=O)N[C@@H](CCC(N)=O)C(=O)N[C@@H](Cc1c[nH]c2ccccc12)C(=O)N[C@@H](CC(C)C)C(=O)N[C@@H](CCCNC(=N)N)C(=O)N[C@@H](CCCCN)C(=O)N[C@@H](CCCCN)C(=O)N[C@@H](CC(C)C)C(=O)N[C@@H](CCC(N)=O)C(=O)N[C@@H](CC(=O)O)C(=O)N[C@H](C(=O)N[C@@H](Cc1c[nH]cn1)C(=O)N[C@@H](CC(N)=O)C(=O)N[C@@H](Cc1ccc(O)cc1)C(N)=O)C(C)C` [PTH(1-34), [Nle^8,21, Tyr^34]PTH(1-34)amide, reference compound], the EC50 (human P1R) was 2.5 ± 0.4 nM, the “maximum (Emax) increase in intracellular cAMP” value (human P1R) was ~70 fold and the “cAMP EMax(obs.)” value (human P1R) was 280 ± 11 pmole/well. The “EMAX(obs.)” value ([1]; cAMP) was 350 ± 30 pmole/well.

With `CC[C@H](C)[C@H](NC(=O)[C@H](CCC(=O)O)NC(=O)C(C)(C)NC(=O)[C@@H](NC(=O)C(C)(C)N)C(C)C)C(=O)N[C@@H](CCC(N)=O)C(=O)N[C@@H](CC(C)C)C(=O)N[C@@H](CCSC)C(=O)N[C@@H](Cc1c[nH]cn1)C(=O)N[C@@H](CCC(N)=O)C(N)=O` [[Aib^1,3,M]PTH(1-10), [Aib^1,3,Gln^10]PTH(1-10)] (H-[Aib]V[Aib]EIQLMHQ-NH2) the EC50 (human P1R) was 16000 ± 2000 nM, the “cAMP potency, fold more potent than [Ala^3,Gln^10]PTH(1-10)” value (human P1R) was 50 fold and the “cAMP potency, fold weaker relative to [Aib^1,3,M]PTH(1-11)” value (human P1R) was 4000 fold. For the same compound, the “cAMP EMax(obs.)” value (human P1R) was 111 ± 8 pmole/well and the “Binding IC50” value [2, 3] was “N.B”.

In the case of `CC[C@H](C)[C@H](NC(=O)[C@H](CCC(=O)O)NC(=O)C(C)(C)NC(=O)[C@@H](NC(=O)C(C)(C)N)C(C)C)C(=O)N[C@@H](CCC(N)=O)C(=O)N[C@@H](CC(C)C)C(=O)N[C@@H](CCSC)C(=O)N[C@@H](Cc1c[nH]cn1)C(=O)N[C@@H](CCC(N)=O)C(=O)N[C@@H](CCCCNC(=N)N)C(N)=O` [[Aib^1,3,M]PTH(1-11), AibValAibGluIleGlnLeuMetHisGlnHar] (H-[Aib]V[Aib]EIQLMHQ[hArg]-NH2), the EC50 (human P1R) is reported as 4 nM and ~6 nM, the “cAMP potency, fold greater than that of [M]PTH(1-11)” value (human P1R) is reported as 1,000 fold and the “cAMP EMax(obs.)” value (human P1R) is reported as 243 ± 15 pmole/well. The “cAMP potency, fold greater than that of [M]PTH(1-11)” value (human P1R; listed as [Aib^1,3,Gln^10,Har^11]PTH(1-11)) was 1000 fold and the IC50 [2, 3] was 16000 nM.

For `CC[C@H](C)[C@H](NC(=O)[C@H](CCC(=O)O)NC(=O)C(C)(C)NC(=O)[C@@H](NC(=O)C(C)(C)N)C(C)C)C(=O)N[C@@H](CCC(N)=O)C(=O)N[C@@H](CC(C)C)C(=O)N[C@@H](CCSC)C(=O)N[C@@H](Cc1c[nH]cn1)C(=O)N[C@@H](CCC(N)=O)C(=O)N[C@@H](CCCCNC(=N)N)C(=O)N[C@@H](C)C(=O)N[C@@H](CCCCN)C(=O)N[C@@H](Cc1c[nH]c2ccccc12)C(N)=O` [[Aib^1,3,M]PTH(1-14), AibValAibGluIleGlnLeuMetHisGlnHarAlaLysTrp] (H-[Aib]V[Aib]EIQLMHQ[hArg]AKW-NH2), the EC50 (human P1R) was 1.1 nM and ~1 nM, the “fold more potent in stimulating cAMP formation than [M]PTH(1-14)” value (human P1R) was 90 fold and 100 fold and the “cAMP EMax(obs.)” value (human P1R) was 278 ± 20 pmole/well. The “binding affinity, fold stronger than [M]PTH(1-14)” value ([2]; P1R-WT) was ~10 fold, the “fold more potent in stimulating cAMP formation than [M]PTH(1-14)” value [1] was 130 fold and the “fold less potent than PTH(1-34)” value ([1]; cAMP) was 13 fold. The “EMAX(obs.)” value ([1]; cAMP) was 320 ± 30 pmole/well.

`CC[C@H](C)[C@H](NC(=O)[C@H](CCC(=O)O)NC(=O)[C@H](C)NC(=O)[C@@H](NC(=O)[C@H](C)N)C(C)C)C(=O)N[C@@H](CCC(N)=O)C(=O)N[C@@H](CC(C)C)C(=O)N[C@@H](CCSC)C(=O)N[C@@H](Cc1c[nH]cn1)C(=O)N[C@@H](CCC(N)=O)C(=O)N[C@@H](CCCCNC(=N)N)C(=O)N[C@@H](C)C(=O)N[C@@H](CCCCN)C(=O)N[C@@H](Cc1c[nH]c2ccccc12)C(N)=O` [[M]PTH(1-14), [Ala^3,12,Gln^10,Har^11,Trp^14]PTH(1-14)amide, reference compound] (H-AVAEIQLMHQ[hArg]AKW-NH2) was tested, and the “cAMP potency (EC50), fold less than that of PTH(1-34)” value (human P1R) was 40 fold, the “maximum (Emax) increase in intracellular cAMP” value (human P1R) was ~70 fold and the “cAMP EMax(obs.)” value (human P1R) was 270 ± 8 pmole/well. For the same compound, the “EMAX(obs.)” value ([1]; cAMP) was 340 ± 30 pmole/well.

In the case of “H-AVSEIQLMHNLGKH-NH2 [PTH(1-14), reference compound]”, the “Binding IC50” value [2, 3] is reported as “N.B”, the EC50 ([1]; cAMP) is reported as “N.R” and the EC50 ([1]; cAMP, listed as native PTH(1-14)) is reported as “no activity could be detected”.
